Results published in patent US20250320205A1, “STAT6 DEGRADERS” (Gilead Sciences, Inc., priority 2024, published 2025).

Tests used:
STAT6 = molecular target: T1, STAT6 (Homo sapiens, UniProt P42226); experiment: STAT6 Degrader Assay (HiBiT based, HeLa LgBiT clone 4.14 cells); format: cell-based; settings: for DC50: geometric mean across assay runs and compound batches, DC50 provided for test compounds with >80% Emax, read-out: STAT6 degradation DC50; for Emax: HeLa, maximal STAT6 degradation
T1 construct: These cells express endogenous STAT6; host or cells: HeLa LgBiT clone 4.14 (CRISPR knock-in of HiBiT into the endogenous STAT6 gene)
T1 sequence (P42226 1-847): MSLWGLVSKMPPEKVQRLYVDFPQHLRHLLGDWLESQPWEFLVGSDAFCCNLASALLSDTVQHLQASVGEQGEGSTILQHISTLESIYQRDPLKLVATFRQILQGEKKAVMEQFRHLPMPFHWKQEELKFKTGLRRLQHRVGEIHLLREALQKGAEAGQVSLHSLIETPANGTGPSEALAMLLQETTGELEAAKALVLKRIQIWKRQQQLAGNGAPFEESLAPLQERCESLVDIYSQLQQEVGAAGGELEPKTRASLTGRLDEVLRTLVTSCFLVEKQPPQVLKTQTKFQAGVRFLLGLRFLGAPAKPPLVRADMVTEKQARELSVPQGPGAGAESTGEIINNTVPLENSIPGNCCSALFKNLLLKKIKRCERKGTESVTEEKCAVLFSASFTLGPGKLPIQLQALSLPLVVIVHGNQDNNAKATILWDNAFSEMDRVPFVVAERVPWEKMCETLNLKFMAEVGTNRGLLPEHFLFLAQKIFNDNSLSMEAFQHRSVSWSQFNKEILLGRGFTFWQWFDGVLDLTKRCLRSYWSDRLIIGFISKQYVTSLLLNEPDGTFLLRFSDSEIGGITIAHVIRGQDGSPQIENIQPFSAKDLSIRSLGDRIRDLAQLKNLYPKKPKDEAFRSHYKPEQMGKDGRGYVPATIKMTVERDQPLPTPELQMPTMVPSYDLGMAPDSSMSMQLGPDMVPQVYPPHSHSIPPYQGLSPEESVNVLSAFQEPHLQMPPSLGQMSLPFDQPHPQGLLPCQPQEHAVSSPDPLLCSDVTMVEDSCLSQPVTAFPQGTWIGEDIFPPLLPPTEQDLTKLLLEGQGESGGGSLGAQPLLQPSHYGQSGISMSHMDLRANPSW
In short: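 DC50 (nM) comes from NanoBiT luminescence of HiBiT-knock-in STAT6 in HeLa LgBiT clone 4.14 cells, treated 4-24 h at 37° C. Luminescence reflects non-degraded STAT6, with 50 μM terfenadine wells taken as full degradation.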

[1] = tested on: Eotaxin-3 (CCL26) release; experiment: Human Whole Blood Eotaxin-3 Assay (IL-4 stimulated); format: cell-based; settings: Homo sapiens; geometric mean across assay runs and compound batches; EC50 provided for test compounds with >80% Emax
Procedure: This was a human whole blood assay using recombinant human Interleukin 4 to stimulate the blood and measuring the ability of the test compounds to inhibit eotaxin-3 release. The biological activities of the test compounds have been tested in human whole blood stimulated with IL-4 measuring Eotaxin-3 release. The test compounds were added to 384 well clear flat-bottom plate in a 4-fold serial dilution in triplicates using a liquid handler. Human whole blood stabilized in lithium-heparin tubes was added in a volume of 65 μL per well, resulting in a final DMSO concentration of 0.5%. The plate is incubated for 2 h at 37° C. under 5% CO2/95% air. Subsequently, 5 μL of recombinant human IL-4 (R&D Systems, cat #204-ILB) was added to the wells to a final concentration of 400 pM. The plate was incubated for 48 h at 37° C. under 5% CO2/95% air. The plate was spun down for 10 minutes at 500×g and 20 μL supernatant was harvested and transferred to a 384 well v-bottom plate using a liquid handler and stored at −20° C. until further analysis. 10 μL supernatant was used to measure the level of Eotaxin-3 (CCL26) using Human Eotaxin-3 MSD kit from Mesocsale (Cat #K251UEK-4). The assay was performed according to the manufacture instructions.

| Compound | DC50 (STAT6) | EC50 [1] | Emax (STAT6) |
| --- | --- | --- | --- |
| CNc1ccn(-c2ccnc3c2cc([C@H](C)N2CC=C(c4c(C)cc(C(=O)N5CCC(CN6CCN(c7ncc(N[C@H]8CCC(=O)NC8=O)cc7F)C[C@H]6C)CC5)cc4F)CC2)n3C)c(=O)c1 (single isomer, unassigned) [Example 2g114] | 5.8 nM | 6.5 nM | – |
| CNc1ccn(-c2ccnc3c2cc([C@H](C)N2CC=C(c4c(C)cc(C(=O)N5CCn6nc(CN7CCC(c8ccc(N[C@H]9CCC(=O)NC9=O)c(OC)c8)CC7)cc6C5)cc4F)CC2)n3C)c(=O)c1 (single isomer, unassigned) [Example 2g117] | 0.3 nM | 0.5 nM | – |
| CNc1ccn(-c2ccnc3c2cc([C@H](C)N2CC=C(c4c(C)cc(C(=O)N5CCn6nc(CN7CCC(c8ccc(N[C@@H]9CCC(=O)NC9=O)c(OC)c8)CC7)cc6C5)cc4F)CC2)n3C)c(=O)c1 (single isomer, unassigned) [Example 2g118] | 0.1 nM | 1.1 nM | – |
| CNc1cc(=O)n(-c2ccnc3c2cc([C@H](C)N2CC=C(c4c(F)cc(C(=O)N5CCC(CN6CCN(c7ccc(N[C@H]8CCC(=O)NC8=O)cc7F)CC6)CC5)cc4F)CC2)n3C)cc1F (single isomer, unassigned) [Example 2g120] | 9.4 nM | 36.5 nM | – |
| CNc1cc(=O)n(-c2ccnc3c2cc([C@H](C)N2CC=C(c4c(F)cc(C(=O)N5CCC(CN6CCN(c7ccc(N[C@@H]8CCC(=O)NC8=O)cc7F)CC6)CC5)cc4F)CC2)n3C)cc1F (single isomer, unassigned) [Example 2g121] | 9.6 nM | 30.9 nM | – |
| CNc1cc(=O)n(-c2ccnc3c2cc(CN2CCC(c4c(F)cc(C(=O)N5CCn6nc(CN7CCC(c8ccc(N[C@H]9CCC(=O)NC9=O)c(OC)c8)CC7)cc6C5)cc4F)CC2)n3C)cc1F (single isomer, unassigned) [Example 2g123] | 1.8 nM | 2.6 nM | – |
| CNc1cc(=O)n(-c2ccnc3c2cc(CN2CCC(c4c(F)cc(C(=O)N5CCn6nc(CN7CCC(c8ccc(N[C@@H]9CCC(=O)NC9=O)c(OC)c8)CC7)cc6C5)cc4F)CC2)n3C)cc1F (single isomer, unassigned) [Example 2g124] | 2.5 nM | 5.7 nM | – |
| CNc1ccn(-c2ccnc3c2cc([C@H](C)N2CC=C(c4c(C)cc(C(=O)N5CCC(CN6CCN(c7ccc(N[C@H]8CCC(=O)NC8=O)c(OC)c7)CC6)CC5)cc4F)CC2)n3C)c(=O)c1 (single isomer, unassigned) [Example 2g126] | 4.3 nM | 21.2 nM | – |
| CNc1ccn(-c2ccnc3c2cc([C@H](C)N2CC=C(c4c(C)cc(C(=O)N5CCC(CN6CCN(c7ccc(N[C@@H]8CCC(=O)NC8=O)c(OC)c7)CC6)CC5)cc4F)CC2)n3C)c(=O)c1 (single isomer, unassigned) [Example 2g127] | 20.8 nM | 9.3 nM | – |
| C[C@@H](c1cc2c(-n3ccc4c(c3=O)CCN4)ccnc2n1C)N1CCC(c2ccc(C(=O)N3CCC(CN4CCN(c5ccc(NC6CCC(=O)NC6=O)cc5F)CC4)CC3)cc2)CC1 (stereo partly drawn) [Example 2c29, 3-((3-fluoro-4-(4-((1-(4-(1-((S)-1-(1-methyl-4-(4-oxo-1,2,3,4-tetrahydro-5H-pyr-rolo[3,2-c]pyridin-5-yl)-1H-pyrrolo[2,3-b]pyridin-2-yl)-ethyl)piperidin-4-yl)benzoyl)-piperidin-4-yl)methyl)piper-azin-1-yl)phenyl)amino)piper-idine-2,6-dione] | – | 15.7 nM | 70 to 80% |
| CNc1ccn(-c2ccnc3c2cc([C@H](C)N2CCC(c4ccc(C(=O)N5CCC(CN6CCN(c7ccc(NC8CCC(=O)NC8=O)cc7F)CC6)CC5)cc4)CC2)n3C)c(=O)c1 (stereo partly drawn) [Example 2c31, 3-((3-fluoro-4-(4-((1-(4-(1-((S)-1-(1-methyl-4-(4-(meth-ylamino)-2-oxopyridin-1(2H)-yl)-1H-pyrrolo[2,3-b]pyridin-2-yl)ethyl)piperidin-4-yl)-benzoyl)piperidin-4-yl)meth-yl)piperzin-1-yl)phenyl)-amino)-piperidine-2,6-dione] | – | 22.5 nM | 70 to 80% |
| C[C@@H]1CN(c2ccc(NC3CCC(=O)NC3=O)cc2F)CCN1CC1CCN(C(=O)c2ccc(C3CCN([C@@H](C)c4cc5c(-n6ccc7c(c6=O)CCN7)ccnc5n4C)CC3)cc2)CC1 (stereo partly drawn) [Example 2f14, 3-((3-fluoro-4-((R)-3-methyl-4-((1-(4-(1-((S)-1-(1-methyl-4-(4-oxo-1,2,3,4-tetrahydro-5H-pyrrolo[3,2-c]pyridin-5-yl)-1H-pyrrolo[2,3-b]pyridin-2-yl)ethyl)piperidin-4-yl)-benzoyl)piperidin-4-yl)-meth-yl)piperazin-1-yl)phenyl)-amino)piperidine-2,6-dione] | 7.8 nM | 18.6 nM | – |
| CNc1cc(=O)n(-c2ccnc3c2cc([C@H](C)N2CC=C(c4c(C)cc(C(=O)N5CCn6nc(CN7CCC(c8ccc(NC9CCC(=O)NC9=O)cc8F)CC7)cc6C5)cc4F)CC2)n3C)cc1F (stereo partly drawn) [Example 2g4, 3-((3-fluoro-4-(1-((5-(3-fluoro-4-(1-((S)-1-(4-(5-fluoro-4-(methylamino)-2-oxopyridin-1(2H)-yl)-1-meth-yl-1H-pyrrolo[2,3-b]pyridin-2-yl)ethyl)-1,2,3,6-tetrahydro-pyridin-4-yl)-5-methylbenzo-yl)-4,5,6,7-tetrahydropyrazolo [1,5-a]pyrazin-2-yl)methyl)-piperidin-4-yl)phenyl)amino)-piperidine-2,6-dione] | 0.5 nM | 1.9 nM | – |
| CNc1cc(=O)n(-c2ccnc3c2cc([C@H](C)N2CC=C(c4c(C)cc(C(=O)N5CCn6nc(CC7(O)CCN(c8ccc(NC9CCC(=O)NC9=O)c(OC)c8)CC7)cc6C5)cc4F)CC2)n3C)cc1F (stereo partly drawn) [Example 2g7, 3-((4-(4-((5-(3-fluoro-4-(1-((S)-1-(4-(5-fluoro-4-(meth-ylamino)-2-oxopyridin-1(2H)-yl)-1-methyl-1H-pyrrolo[2,3-b]pyridin-2-yl)ethyl)-1,2,3,6-tetrahydropyridin-4-yl)-5-methylbenzoyl)-4,5,6,7-tetra-hydropyrazolo[1,5-a]pyrazin-2-yl)methyl)-4-hydroxy-piperidin-1-yl)-2-methoxy-phenyl)amino)-piperidine-2,6-dione] | 10.3 nM | 15.4 nM | – |
| CNc1ccn(-c2ccnc3c2cc([C@H](C)N2CC=C(c4c(C)cc(C(=O)N5CCC(CN6CCN(Cc7ccc(NC8CCC(=O)NC8=O)c(F)c7)CC6)CC5)cc4F)CC2)n3C)c(=O)c1 (stereo partly drawn) [Example 2g10, 3-((2-fluoro-4-((4-((1-(3-fluoro-5-methyl-4-(1-((S)-1-(1-methyl-4-(4-(methyl-amino)-2-oxopyridin-1(2H)-yl)-1H-pyrrolo[2,3-b]pyridin-2-yl)ethyl)-1,2,3,6-tetrahydro-pyridin-4-yl)benzoyl)-piper-idin-4-yl)methyl)piperazin-1-yl)methyl)phenyl)amino)-piperidine-2,6-dione] | 11.4 nM | 19.2 nM | – |
| Cc1cc(C(=O)N2CCn3nc(CN4CCC(c5ccc(NC6CCC(=O)NC6=O)cc5F)CC4)cc3C2)cc(F)c1C1=CCN([C@@H](C)c2cc3c(-n4cc(F)c5c(c4=O)CCN5)ccnc3n2C)CC1 (stereo partly drawn) [Example 2g14, 3-((3-fluoro-4-(1-((5-(3-fluoro-4-(1-((S)-1-(4-(7-fluoro-4-oxo-1,2,3,4-tetra-hydro-5H-pyrrolo[3,2-c]pyridin-5-yl)-1-methyl-1H-pyrrolo[2,3-b]pyridin-2-yl)-ethyl)-1,2,3,6-tetrahydro-pyridin-4-yl)-5-methylbenzo-yl)-4,5,6,7-tetrahydropyrazolo [1,5-a]pyrazin-2-yl)methyl)-piperidin-4-yl)phenyl)amino)-piperidine-2,6-dione] | 2.2 nM | 3.5 nM | – |
